Data from patent publication US9556183B2, “Substituted pyrazolylpyrazole derivative and use of same as herbicide” (KYOYU AGRI CO., LTD., priority 2013, dated 2017).

Tests used:
Type in all cases: in vivo
Rice plants = experiment: Paddy herbicidal activity test, phytotoxicity to transplanted rice; settings: rice transplanted at 2.0 leaf stage, 30 days
Procedure: (§1) Rice paddy soil was filled into a 1/10000 are pot followed by the addition of suitable amounts of water and chemical fertilizer, kneading, seeding with Echinochloa crus-galli, Monochoria vaginalis and Scirpus juncoides and maintaining in an irrigated state at a water depth of 3 cm. Wettable powder of Target Compound (I) shown in Table 1 prepared in compliance with the preparation examples were diluted with a suitable amount of water, rice plants in the 2.0 leaf stage were transplanted during 3.5 leaf stage of Echinochloa crus-galli, and treated by dropping in chemical in the prescribed amount per are using a pipette. After treating for 30 days in a glass greenhouse at an average atmospheric temperature of 30° C., the herbicidal efficacy thereof was investigated. Evaluation of herbicidal efficacy was carried out by comparing growth inhibition rate (%) with an untreated group, while evaluation of phytotoxicity was carried out by comparing growth inhibition rate (%) with the state of a complete eradication group, and were evaluated at 11 levels indicated below. [table]

Echinochloa crus-galli = experiment: Paddy herbicidal activity test; settings: irrigated paddy pot, treated at 3.5 leaf stage of Echinochloa crus-galli, 30 days
Procedure: as §1

Scirpus juncoides = experiment: Paddy herbicidal activity test; settings: irrigated paddy pot, 30 days
Procedure: as §1

Monochoria vaginalis = experiment: Paddy herbicidal activity test; settings: irrigated paddy pot, 30 days
Procedure: as §1

SMILES	phytotoxicity (growth inhibition rate level) Rice plants (Rice plants; 1g a.i./10a)	phytotoxicity (growth inhibition rate level) Rice plants (Rice plants; 5g a.i./10a)	herbicidal efficacy (growth inhibition rate level) Echinochloa crus-galli (Echinochloa crus-galli; 1g a.i./10a)	herbicidal efficacy (growth inhibition rate level) Echinochloa crus-galli (Echinochloa crus-galli; 5g a.i./10a)	herbicidal efficacy (growth inhibition rate level) Scirpus juncoides (Scirpus juncoides; 1g a.i./10a)	herbicidal efficacy (growth inhibition rate level) Scirpus juncoides (Scirpus juncoides; 5g a.i./10a)	herbicidal efficacy (growth inhibition rate level) Monochoria vaginalis (Monochoria vaginalis; 1g a.i./10a)	herbicidal efficacy (growth inhibition rate level) Monochoria vaginalis (Monochoria vaginalis; 5g a.i./10a)
N#Cc1cnn(-c2nn3c(c2Cl)CCCC3)c1N(CC1CC1)C(=O)C(F)(F)C(F)(F)F [Compound 3]	0 (0 (exponent): 0% to less than 10% (growth inhibition rate))	0 (0 (exponent): 0% to less than 10% (growth inhibition rate))	8 (8: 80% to less than 90%)	8 (8: 80% to less than 90%)	7 (7: 70% to less than 80%)	8 (8: 80% to less than 90%)	7 (7: 70% to less than 80%)	7 (7: 70% to less than 80%)
CC1(CNc2c(C#N)cnn2-c2nn3c(c2Cl)CCCC3)CC1 [Compound 4]	0 (0 (exponent): 0% to less than 10% (growth inhibition rate))	1 (1: 10% to less than 20%)	9 (9: 90% to less than 100%)	10 (10: 100%)	8 (8: 80% to less than 90%)	8 (8: 80% to less than 90%)	9 (9: 90% to less than 100%)	9 (9: 90% to less than 100%)
N#Cc1cnn(-c2nn3c(c2Cl)CCC3)c1NCC1CC1 [Compound 5]	0 (0 (exponent): 0% to less than 10% (growth inhibition rate))	1 (1: 10% to less than 20%)	9 (9: 90% to less than 100%)	10 (10: 100%)	8 (8: 80% to less than 90%)	9 (9: 90% to less than 100%)	9 (9: 90% to less than 100%)	9 (9: 90% to less than 100%)
N#Cc1cnn(-c2nn3c(c2Cl)CCC3)c1N(CC1CC1)C(=O)C(F)(F)F [Compound 6]	0 (0 (exponent): 0% to less than 10% (growth inhibition rate))	0 (0 (exponent): 0% to less than 10% (growth inhibition rate))	9 (9: 90% to less than 100%)	9 (9: 90% to less than 100%)	7 (7: 70% to less than 80%)	8 (8: 80% to less than 90%)	8 (8: 80% to less than 90%)	9 (9: 90% to less than 100%)
CC(Nc1c(C#N)cnn1-c1nn2c(c1Cl)CCCC2)C1(C)CC1 (stereo not shown) [Compound 8]	0 (0 (exponent): 0% to less than 10% (growth inhibition rate))	0 (0 (exponent): 0% to less than 10% (growth inhibition rate))	9 (9: 90% to less than 100%)	9 (9: 90% to less than 100%)	7 (7: 70% to less than 80%)	8 (8: 80% to less than 90%)	7 (7: 70% to less than 80%)	7 (7: 70% to less than 80%)
CC1CC1CN(C(=O)C(F)(F)F)c1c(C#N)cnn1-c1nn2c(c1Cl)CCCC2 (stereo not shown) [Compound 13]	0 (0 (exponent): 0% to less than 10% (growth inhibition rate))	1 (1: 10% to less than 20%)	9 (9: 90% to less than 100%)	9 (9: 90% to less than 100%)	8 (8: 80% to less than 90%)	8 (8: 80% to less than 90%)	8 (8: 80% to less than 90%)	8 (8: 80% to less than 90%)
CC(C1CC1)N(C(=O)C(F)(F)F)c1c(C#N)cnn1-c1nn2c(c1Cl)CCCC2 (stereo not shown) [Compound 14]	0 (0 (exponent): 0% to less than 10% (growth inhibition rate))	0 (0 (exponent): 0% to less than 10% (growth inhibition rate))	8 (8: 80% to less than 90%)	9 (9: 90% to less than 100%)	7 (7: 70% to less than 80%)	8 (8: 80% to less than 90%)	7 (7: 70% to less than 80%)	7 (7: 70% to less than 80%)
O=[N+]([O-])c1cnn(-c2nn3c(c2Cl)CCCC3)c1NCC1CC1 [Compound 114]	0 (0 (exponent): 0% to less than 10% (growth inhibition rate))	0 (0 (exponent): 0% to less than 10% (growth inhibition rate))	9 (9: 90% to less than 100%)	9 (9: 90% to less than 100%)	8 (8: 80% to less than 90%)	9 (9: 90% to less than 100%)	7 (7: 70% to less than 80%)	8 (8: 80% to less than 90%)
O=C(N(CC1CC1)c1c([N+](=O)[O-])cnn1-c1nn2c(c1Cl)CCCC2)C(F)(F)F [Compound 115]	0 (0 (exponent): 0% to less than 10% (growth inhibition rate))	1 (1: 10% to less than 20%)	8 (8: 80% to less than 90%)	9 (9: 90% to less than 100%)	9 (9: 90% to less than 100%)	8 (8: 80% to less than 90%)	8 (8: 80% to less than 90%)	8 (8: 80% to less than 90%)
O=[N+]([O-])c1cnn(-c2nn3c(c2Br)CCCC3)c1NCC1CC1 [Compound 158]	0 (0 (exponent): 0% to less than 10% (growth inhibition rate))	0 (0 (exponent): 0% to less than 10% (growth inhibition rate))	8 (8: 80% to less than 90%)	9 (9: 90% to less than 100%)	8 (8: 80% to less than 90%)	9 (9: 90% to less than 100%)	7 (7: 70% to less than 80%)	7 (7: 70% to less than 80%)
O=C(N(CC1CC1)c1c([N+](=O)[O-])cnn1-c1nn2c(c1Br)CCCC2)C(F)(F)F [Compound 159]	0 (0 (exponent): 0% to less than 10% (growth inhibition rate))	0 (0 (exponent): 0% to less than 10% (growth inhibition rate))	8 (8: 80% to less than 90%)	9 (9: 90% to less than 100%)	7 (7: 70% to less than 80%)	8 (8: 80% to less than 90%)	7 (7: 70% to less than 80%)	8 (8: 80% to less than 90%)
